Test results from patent US20090118135A1, “METHODS AND COMPOUNDS FOR REGULATING APOPTOSIS” (The Burnham Institute, priority 2007, published 2009).
“And” between values parts separate entries of the source, which are not always exact repeats. Equal values may be shown once. Read-outs that look alike come from different tables or passages of the source. Values belong to the molecule of their own block, whether it stands above or below them. Where no end group is shown, it is not given here. [ ]: non-standard residue; d: D form. The star is where a group is joined. FITC = O=C1OC2(c3ccc(O)cc3Oc3cc(O)ccc32)c2ccc(NC(=S)*)cc21; Ahx = NCCCCCC(=O)O

How the values were obtained:
GST-Bcl-B [1] = target: T1, GST-Bcl-B (Homo sapiens, UniProt Q9HD36); assay: biochemical
T1 sequence (Q9HD36 1-182 limits assumed): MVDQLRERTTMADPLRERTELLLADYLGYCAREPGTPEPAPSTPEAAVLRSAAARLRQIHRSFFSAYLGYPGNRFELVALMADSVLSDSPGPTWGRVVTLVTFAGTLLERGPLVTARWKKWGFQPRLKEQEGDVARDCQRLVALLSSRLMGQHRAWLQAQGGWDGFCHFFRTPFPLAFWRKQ

GST-Bcl-2 [2] = target: T2, GST-Bcl-2 (Homo sapiens, UniProt P10415); assay: biochemical
T2 sequence (P10415 1-218 limits assumed): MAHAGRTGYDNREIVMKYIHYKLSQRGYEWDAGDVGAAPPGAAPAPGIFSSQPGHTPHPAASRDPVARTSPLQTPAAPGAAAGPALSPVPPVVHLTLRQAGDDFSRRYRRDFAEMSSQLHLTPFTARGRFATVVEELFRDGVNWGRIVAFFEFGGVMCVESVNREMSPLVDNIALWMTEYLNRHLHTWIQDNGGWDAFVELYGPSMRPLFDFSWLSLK

GST-Bcl-B [3] = target: T1, GST-Bcl-B; assay: Bcl-B/FITC-TR3-r8 fluorescence polarization competition (displacement) assay, HTS and dose-response; settings: for Bcl-B H Coefficient: Hill coefficient of Bcl-B dose-response curve
GST-Bcl-2 [4] = target: T2, GST-Bcl-2; assay: Bcl-2/FITC-TR3 fluorescence polarization competition assay (PBS + Tween-20); settings: Hill coefficient of Bcl-2 dose-response curve
GST-Hsp70 = GST-Hsp70 (Homo sapiens, UniProt P0DMV8); assay: FITC-ATP/GST-Hsp70 fluorescence polarization counter-screen; assay type: binding; settings: HSP/FITC-ATP counter screen; read-out: HSP70 IC50 (Hill) (converted)
Sequence of GST-Hsp70 (P0DMV8 whole entry): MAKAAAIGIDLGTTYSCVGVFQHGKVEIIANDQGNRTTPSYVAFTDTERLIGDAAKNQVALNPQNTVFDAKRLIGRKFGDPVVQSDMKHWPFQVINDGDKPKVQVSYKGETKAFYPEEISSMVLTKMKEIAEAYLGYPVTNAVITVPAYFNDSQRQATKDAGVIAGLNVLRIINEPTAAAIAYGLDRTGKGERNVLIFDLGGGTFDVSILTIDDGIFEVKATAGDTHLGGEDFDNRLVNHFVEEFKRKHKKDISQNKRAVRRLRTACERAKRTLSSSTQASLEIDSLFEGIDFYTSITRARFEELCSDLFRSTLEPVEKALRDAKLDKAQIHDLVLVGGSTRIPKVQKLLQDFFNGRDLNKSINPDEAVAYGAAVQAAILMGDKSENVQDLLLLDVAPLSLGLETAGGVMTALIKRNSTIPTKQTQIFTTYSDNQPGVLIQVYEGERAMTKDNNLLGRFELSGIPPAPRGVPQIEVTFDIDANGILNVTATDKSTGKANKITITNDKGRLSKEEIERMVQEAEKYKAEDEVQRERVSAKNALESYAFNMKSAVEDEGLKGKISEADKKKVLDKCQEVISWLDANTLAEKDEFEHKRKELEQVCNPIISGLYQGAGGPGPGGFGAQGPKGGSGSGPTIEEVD
Experimental: Dose-response curves were then generated (fluorescent compounds were eliminated), followed by counter-screening using a biologically unrelated FPA (GST-Hsp70/FITC-ATP).
A number of assays were then performed to eliminate non-specific or irreproducible hits (FIG. 21). […] Second, compound dose-response curves were generated using the fluorescence polarization assay. […] Finally, 1D-NMR was used to test the compounds for binding to GST-Bcl-B versus GST (as a negative control) (FIG. 22).

GST-Bcl-B [5] = target: T1, GST-Bcl-B; assay: FITC-Bim-BH3/GST-Bcl-B fluorescence polarization displacement assay; assay type: binding; parameters: their C-terminal transmembrane domains (˜20 amino acids) were deleted to enhance protein solubility; made in house; host or cells: E. coli (BL21 Star (DE3); XL-1 Blue), pGEX-4T-1; settings: FIG. 23D; result in words
GST-Bcl-B [6] = target: T1, GST-Bcl-B; assay: FITC-Puma-BH3/GST-Bcl-B fluorescence polarization displacement assay; assay type: binding; parameters: their C-terminal transmembrane domains (˜20 amino acids) were deleted to enhance protein solubility; made in house; host or cells: E. coli (BL21 Star (DE3); XL-1 Blue), pGEX-4T-1; settings: FIG. 23C; result in words
GST = target: T3, GST (Schistosoma japonicum, UniProt P08515); assay: 1D 1H-NMR compound binding, GST negative control; settings: negative control protein; result in words
T3 construct: made in house; host or cells: Escherichia coli BL21 Star (DE3), pGEX-4T-1
T3 sequence (P08515 whole entry): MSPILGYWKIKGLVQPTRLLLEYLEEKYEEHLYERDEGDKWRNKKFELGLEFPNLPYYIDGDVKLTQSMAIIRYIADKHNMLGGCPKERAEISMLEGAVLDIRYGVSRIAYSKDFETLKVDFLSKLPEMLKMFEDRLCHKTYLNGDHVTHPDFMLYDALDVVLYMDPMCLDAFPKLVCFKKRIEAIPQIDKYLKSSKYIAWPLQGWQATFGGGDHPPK
Experimental: (§1) FIGS. 22A-22F are line graphs showing a ^1H-NMR spectra confirmation of compound binding to Bcl-B. Compounds 5804000, 5954623, and 2011727 were diluted in PBS/D2O buffer to 1000 μM, then incubated with either GST (FIGS. 22A, C, E) or GST-Bcl-B (FIGS. 22B, D, F) at 0, 10 or 20 μM concentrations. FIGS. 22A-B show compound 5804000; FIGS. 22C-D show compound 5954623; and FIGS. 22E-F show the NMR spectra for the negative control compound 2011727. The most prominent peak shift for each compound is shown.
(§2) NMR experiments were performed at 25° C. on a 500 MHz Bruker Avance spectrometer (Bruker, Madison, Wis.) equipped with a 5 mm TXI probe. […] Reference solutions were then used in titration experiments with GST-Bcl-B or GST. All ^1H NMR spectra were obtained with the carrier position set to the water peak signal using WATERGATE. NMR data were processed and analyzed with MestRe Nova (MestReLab Research, Santiago de Compostela, Spain).

[7] = system: HeLa Tet-On-Bcl-B (HTO2) cells; assay: Cell viability (ATPlite) in HeLa Tet-On-Bcl-B cells with or without doxycycline; assay type: cell-based; settings: 24 h, 24 h, read-out: concentration required to reduce HeLa Tet-On-Bcl-B cell viability by 50%
Experimental: FIG. 24A is a photograph of a blot wherein HeLa Tet-On (HTO1) and HeLa Tet-On-Bcl-B (HTO2) cells were treated with or without doxycycline (dox) for 24 h to induce their tetracycline-responsive promoters. Protein lysates were collected, and immunoblotting was used to analyze Bcl-B and Hsc70 (for loading control) expression. In FIG. 24B the cells were treated with or without doxycycline for 24 h, and then with staurosporine at the indicated concentrations for 24 h. Cell viability was measured using ATPlite. In FIG. 24C HeLa Tet-On-Bcl-B (HTO2) cells were treated with or without doxacycline as above. Compounds were then added at the indicated concentrations, and cell viability was measured 24 h later using ATPlite. The data shown represent mean±standard deviation (n=3).
HeLa Tet-On-Bcl-B cells were generated by stably transfecting the HeLa Tet-On cell line (Clontech, Mountain View, Calif.) with a pTRE2hyg vector (Clontech) containing the Bcl-B gene, using lipofectAMINE PLUS (Invitrogen, Carlsbad, Calif.). Briefly, cells were seeded overnight and transfected at 50% confluency for 3 h. After 24 h, the cells were re-seeded at <10% confluence and cultured in media (DMEM with 10% Tet System Approved FBS (Clontech)) containing G418 (100 μg/mL) and hygromycin B (300 μg/mL) for pTet-On and pTRE2hyg/Bcl-B plasmid maintenance, respectively. Positive foci resistant to both antibiotics were expanded. Colonies were then cultured in the presence or absence of doxycycline (Clontech, 1 μg/mL) for 16 h, and induced Bcl-B expression was confirmed by Western blot analysis. A previously developed polyclonal Bcl-B antibody^17 and an Hsc70 antibody (for protein concentration comparison; Santa Cruz Biotechnology, Santa Cruz, Calif.) were used.
Cells were seeded in 96-well plates at 5,000 cells/well in 100 μL of growth medium and allowed to incubate for 24 h. Afterwards, cells were incubated in the presence or absence of doxycycline (1 μg/mL) for another 24 h (to induce Bcl-B expression). Compounds were then added, as indicated, in a volume of 5 μL. The next day, cell viability was measured using the ATPlite Luminescence ATP Detection System (PerkinElmer, Waltham, Mass.) according to the manufacturer's specifications.

GST-Bcl-B [8] = target: T1, GST-Bcl-B; assay: 1D 1H-NMR compound binding, GST-Bcl-B; parameters: their C-terminal transmembrane domains (˜20 amino acids) were deleted to enhance protein solubility; made in house; host or cells: E. coli (BL21 Star (DE3); XL-1 Blue), pGEX-4T-1; settings: result in words
Experimental: as §1, §2

[9] = target: GST-Bcl-B ΔTM [GST: P08515]; assay: fluorescence polarization, 20 nM FITC-TR3-r8 with increasing GST-Bcl-B
[10] = target: GST-Bcl-B ΔTM [GST: P08515]; assay: fluorescence polarization binding curves
[11] = target: GST-Bcl-2 ΔTM [GST: P08515]; assay: fluorescence polarization, direct binding to GST-Bcl-2
[12] = target: GST-Bcl-B ΔTM [GST: P08515]; assay: fluorescence polarization, 20 nM FITC-TR3-r8 with increasing GST-Bcl-B, HEPES/β-glycerophosphate buffer
[13] = target: GST-Bfl-1 ΔTM [GST: P08515]; assay: Bfl-1 FPA plate, well B12: FITC-BH3 and GST-Bfl-1 without compound
[14] = target: GST-Bfl-1 ΔTM [GST: P08515]; assay: Bfl-1 FPA plate, well G12: FITC-BH3 and GST-Bfl-1 without compound
[15] = target: GST-Bfl-1 ΔTM [GST: P08515]; assay: Bfl-1 FPA plate, well H12: FITC-BH3 and GST-Bfl-1 without compound
[16] = target: GST-Bfl-1 ΔTM [GST: P08515]; assay: Bfl-1 FPA plate, well F12: FITC-BH3 and GST-Bfl-1 without compound
[17] = target: GST-Bfl-1 ΔTM [GST: P08515]; assay: Bfl-1 FPA plate, well A12: FITC-BH3 and GST-Bfl-1 without compound (peptide-alone wells 43-52 mP)
[18] = target: GST-Bfl-1 ΔTM [GST: P08515]; assay: Bfl-1 FPA plate, well C12: FITC-BH3 and GST-Bfl-1 without compound
[19] = target: GST-Bfl-1 ΔTM [GST: P08515]; assay: Bfl-1 FPA plate, well D12: FITC-BH3 and GST-Bfl-1 without compound
[20] = target: GST-Bfl-1 ΔTM [GST: P08515]; assay: Bfl-1 FPA plate, well E12: FITC-BH3 and GST-Bfl-1 without compound
[21] = target: T4, GST (glutathione S-transferase control protein) (UniProt P08515 1-218 = GST); assay: fluorescence polarization, 5 nM FITC-Bid BH3 with various concentrations of GST
T4 construct: Negative control protein; also called control GST protein
T4 sequence (P08515 whole entry): as above

IC50 (GST-Bcl-B [1]): 7.88 µM and 7.84 µM
IC50 (GST-Bcl-2 [2]): 9.83 µM and 9.78 µM
Bcl-B H Coefficient (GST-Bcl-B [3]): 3.385
Molecule: O=C(O)Cc1c[nH]c2ccc(O)cc12 [Compound 5106705]

IC50 (GST-Bcl-B [1]): 1.03 µM
Bcl-2 H Coefficient (GST-Bcl-2 [4]): 2.956
IC50 (GST-Hsp70): 37 µM
Bcl-B H Coefficient (GST-Bcl-B [3]): 1.13
Molecule: O=C(O)C1Nc2c(Cl)cc(Cl)cc2C2C=CCC12 (centres unmarked) [Compound 5736518]

fluorescence polarization (mP) [13]: 160 mP
fluorescence polarization (mP) [14]: 155 mP
fluorescence polarization (mP) [15]: 163 mP
fluorescence polarization (mP) [16]: 163 mP
fluorescence polarization (mP) [17]: 148 mP
fluorescence polarization (mP) [18]: 166 mP
fluorescence polarization (mP) [19]: 158 mP
fluorescence polarization (mP) [20]: 157 mP
binding result [21]: no binding
Molecule: {FITC-Ahx}-EDIIRNIARHLAQVGDSMDR-NH2 (also called FITC-BH3 peptide; FITC-BH3) [FITC-Bid BH3 peptide]

Continued, molecule first:

Molecule: Cc1cc(C)nc(NC(=N)Nc2cccc(N)c2)n1 [Compound 5804000]
displacement of FITC-Bim-BH3 from GST-Bcl-B (GST-Bcl-B [5]): did not
displacement of FITC-Puma-BH3 from GST-Bcl-B (GST-Bcl-B [6]): did not
IC50 (GST-Bcl-B [1]): 11.3 µM
binding to GST by 1D-NMR (GST): did not bind to GST
IC50 ([7]; Homo sapiens, HeLa, in the absence of Bcl-B (without doxycycline)): ~148 µM
IC50 ([7]; Homo sapiens, HeLa, in the presence of Bcl-B (with doxycycline)): ~226 µM
binding to GST-Bcl-B by 1D-NMR (GST-Bcl-B [8]): bound to GST-Bcl-B in a concentration dependent manner
EC50 (GST-Bcl-B [3]): 5.6 µM
Bcl-B H Coefficient (GST-Bcl-B [3]): 1.599

Molecule: O=C(O[C@@H]1Cc2c(O)cc(O)cc2O[C@@H]1c1cc(O)c(O)c(O)c1)c1cc(O)c(O)c(O)c1 [EGCG, epigallecatechin]
IC50 ([7]; in the absence of Bcl-B (without doxycycline)): 79 µM
IC50 ([7]; in the presence of Bcl-B (with doxycycline)): ~93 µM
displacement of FITC-TR3-r8 from GST-Bcl-B (GST-Bcl-B [3]; result in words): none of these reagents displaced FITC-TR3-r8

Molecule: {FITC-Ahx}-FSRSLHSLLG[Ahx][dR][dR][dR][dR][dR][dR][dR][dR] [FITC-TR3-9-r8]
Kd [9]: 20 nM
fold increase of affinity in HβG buffer against PBS buffer [10]: 5 to 10 fold
Kd [11]: < 100 nM
Kd [12]: 20 nM
